Experimental data as given in ChEMBL document CHEMBL4507270 (2021).

Tests used:
[1] = target: T1, Sigma intracellular receptor 2 (Homo sapiens, UniProt Q5BJF2); assay: GPCRScan assay: inhibition of Sigma 2; set-up: radioligand conc. used [nm] 5.0, parental cells HEKT
[2] = system: Tyrosine-protein kinase ABL1 (Homo sapiens), P00519 [E255K]
[3] = system: Tyrosine-protein kinase ABL1 (Homo sapiens), P00519 [F317I]
[4] = target: Activin receptor type-2A (Homo sapiens) (UniProt P27037)
[5] = target: Atypical kinase COQ8A, mitochondrial (Homo sapiens) (UniProt Q8NI60)
[6] = target: Cytoplasmic tyrosine-protein kinase BMX (Homo sapiens) (UniProt P51813)
Chain of Cytoplasmic tyrosine-protein kinase BMX (Homo sapiens) (P51813 whole entry): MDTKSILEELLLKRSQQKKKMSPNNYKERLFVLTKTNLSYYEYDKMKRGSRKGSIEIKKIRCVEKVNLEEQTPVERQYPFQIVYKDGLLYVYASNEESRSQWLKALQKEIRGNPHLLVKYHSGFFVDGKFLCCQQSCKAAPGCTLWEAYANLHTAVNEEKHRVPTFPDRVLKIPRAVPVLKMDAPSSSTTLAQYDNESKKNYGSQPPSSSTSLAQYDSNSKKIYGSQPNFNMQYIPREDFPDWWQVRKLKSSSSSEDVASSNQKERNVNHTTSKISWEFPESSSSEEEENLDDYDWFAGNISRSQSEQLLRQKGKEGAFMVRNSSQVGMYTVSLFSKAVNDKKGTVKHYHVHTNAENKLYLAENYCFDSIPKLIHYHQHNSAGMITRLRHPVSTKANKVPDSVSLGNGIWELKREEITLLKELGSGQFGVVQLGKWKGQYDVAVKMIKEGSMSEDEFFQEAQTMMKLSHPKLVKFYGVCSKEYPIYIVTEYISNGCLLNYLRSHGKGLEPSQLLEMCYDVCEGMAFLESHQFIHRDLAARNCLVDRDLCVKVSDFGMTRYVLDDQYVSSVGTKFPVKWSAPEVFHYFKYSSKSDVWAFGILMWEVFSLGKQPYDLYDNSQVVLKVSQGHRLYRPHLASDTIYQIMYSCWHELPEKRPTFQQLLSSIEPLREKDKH

[7] = target: Calcium/calmodulin-dependent protein kinase type 1D (Homo sapiens) (UniProt Q8IU85)
[8] = target: Calcium/calmodulin-dependent protein kinase kinase 1 (Homo sapiens) (UniProt Q8N5S9)
[9] = target: Cyclin-dependent kinase 13 (Homo sapiens) (UniProt Q14004)
[10] = target: Cyclin-dependent kinase 3 (Homo sapiens) (UniProt Q00526)
[11] = target: Cyclin-dependent kinase 5 (Homo sapiens) (UniProt Q00535)
[12] = target: Serine/threonine-protein kinase Chk1 (Homo sapiens) (UniProt O14757)
[13] = target: Casein kinase I isoform delta (Homo sapiens) (UniProt P48730)
[14] = target: Casein kinase I isoform gamma-2 (Homo sapiens) (UniProt P78368)
[15] = target: Death-associated protein kinase 1 (Homo sapiens) (UniProt P53355)
[16] = target: Serine/threonine-protein kinase MRCK gamma (Homo sapiens) (UniProt Q6DT37)
[17] = system: Epidermal growth factor receptor (Homo sapiens), P00533 [UNDEFINED MUTATION]
[18] = target: Mitogen-activated protein kinase 1 (Homo sapiens) (UniProt P28482)
[19] = target: Tyrosine-protein kinase Fer (Homo sapiens) (UniProt P16591)
[20] = target: Fibroblast growth factor receptor 2 (Homo sapiens) (UniProt P21802)
[21] = target: Rhodopsin kinase GRK7 (Homo sapiens) (UniProt Q8WTQ7)
Chain of Rhodopsin kinase GRK7 (Homo sapiens) (Q8WTQ7 whole entry): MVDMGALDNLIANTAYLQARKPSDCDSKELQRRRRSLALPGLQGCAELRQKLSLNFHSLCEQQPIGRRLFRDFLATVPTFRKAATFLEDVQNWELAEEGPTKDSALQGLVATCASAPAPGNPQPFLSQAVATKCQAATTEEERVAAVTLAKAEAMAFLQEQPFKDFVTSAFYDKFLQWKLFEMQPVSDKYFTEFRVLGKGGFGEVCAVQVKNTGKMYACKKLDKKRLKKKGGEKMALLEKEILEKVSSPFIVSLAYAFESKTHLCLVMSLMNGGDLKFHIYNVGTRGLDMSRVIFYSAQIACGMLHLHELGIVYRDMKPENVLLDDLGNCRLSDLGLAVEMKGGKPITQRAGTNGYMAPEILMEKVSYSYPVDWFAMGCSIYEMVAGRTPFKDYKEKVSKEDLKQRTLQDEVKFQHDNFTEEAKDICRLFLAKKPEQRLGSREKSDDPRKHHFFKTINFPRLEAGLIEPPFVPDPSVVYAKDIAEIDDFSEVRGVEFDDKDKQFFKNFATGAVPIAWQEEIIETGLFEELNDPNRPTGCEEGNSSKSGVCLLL

[22] = target: Homeodomain-interacting protein kinase 2 (Homo sapiens) (UniProt Q9H2X6)
[23] = target: Homeodomain-interacting protein kinase 3 (Homo sapiens) (UniProt Q9H422)
[24] = target: Insulin-like growth factor 1 receptor (Homo sapiens) (UniProt P08069)
[25] = target: Interleukin-1 receptor-associated kinase 1 (Homo sapiens) (UniProt P51617)
[26] = target: Mitogen-activated protein kinase kinase kinase 4 (Homo sapiens) (UniProt Q9Y6R4)
[27] = target: Dual specificity mitogen-activated protein kinase kinase 2 (Homo sapiens) (UniProt P36507)
[28] = target: Misshapen-like kinase 1 (Homo sapiens) (UniProt Q8N4C8)
[29] = target: Serine/threonine-protein kinase Nek5 (Homo sapiens) (UniProt Q6P3R8)
[30] = target: Serine/threonine-protein kinase PAK 6 (Homo sapiens) (UniProt Q9NQU5)
[31] = target: Serine/threonine-protein kinase PAK 5 (Homo sapiens) (UniProt Q9P286)
[32] = target: Phosphatidylinositol 4-phosphate 3-kinase C2 domain-containing subunit beta (Homo sapiens) (UniProt O00750)
[33] = system: Phosphatidylinositol 4,5-bisphosphate 3-kinase catalytic subunit alpha isoform (Homo sapiens), P42336 [E545K]
[34] = target: Phosphatidylinositol 4-phosphate 5-kinase type-1 alpha (Homo sapiens) (UniProt Q99755)
Chain of Phosphatidylinositol 4-phosphate 5-kinase type-1 alpha (Homo sapiens) (Q99755 whole entry): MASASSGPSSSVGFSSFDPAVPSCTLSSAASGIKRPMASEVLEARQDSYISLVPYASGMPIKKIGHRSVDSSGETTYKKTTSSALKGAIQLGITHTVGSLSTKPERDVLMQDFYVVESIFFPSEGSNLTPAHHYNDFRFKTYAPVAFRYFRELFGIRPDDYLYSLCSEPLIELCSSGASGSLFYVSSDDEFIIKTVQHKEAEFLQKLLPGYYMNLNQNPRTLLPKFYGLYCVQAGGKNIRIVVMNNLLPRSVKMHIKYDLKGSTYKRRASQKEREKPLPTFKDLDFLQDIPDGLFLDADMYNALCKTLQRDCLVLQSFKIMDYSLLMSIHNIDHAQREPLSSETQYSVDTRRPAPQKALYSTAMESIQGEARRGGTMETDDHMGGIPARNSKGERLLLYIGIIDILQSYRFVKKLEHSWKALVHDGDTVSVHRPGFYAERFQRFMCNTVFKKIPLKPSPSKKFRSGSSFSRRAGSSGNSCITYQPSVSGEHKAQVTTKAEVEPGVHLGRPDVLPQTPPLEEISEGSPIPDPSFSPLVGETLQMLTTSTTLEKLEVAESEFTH

[35] = target: Phosphatidylinositol 5-phosphate 4-kinase type-2 gamma (Homo sapiens) (UniProt Q8TBX8)
[36] = target: Serine/threonine-protein kinase RIO1 (Homo sapiens) (UniProt Q9BRS2)
[37] = target: Rho-associated protein kinase 1 (Homo sapiens) (UniProt Q13464)
[38] = target: Ribosomal protein S6 kinase alpha-3 (Homo sapiens) (UniProt P51812)
Chain of Ribosomal protein S6 kinase alpha-3 (Homo sapiens) (P51812 whole entry): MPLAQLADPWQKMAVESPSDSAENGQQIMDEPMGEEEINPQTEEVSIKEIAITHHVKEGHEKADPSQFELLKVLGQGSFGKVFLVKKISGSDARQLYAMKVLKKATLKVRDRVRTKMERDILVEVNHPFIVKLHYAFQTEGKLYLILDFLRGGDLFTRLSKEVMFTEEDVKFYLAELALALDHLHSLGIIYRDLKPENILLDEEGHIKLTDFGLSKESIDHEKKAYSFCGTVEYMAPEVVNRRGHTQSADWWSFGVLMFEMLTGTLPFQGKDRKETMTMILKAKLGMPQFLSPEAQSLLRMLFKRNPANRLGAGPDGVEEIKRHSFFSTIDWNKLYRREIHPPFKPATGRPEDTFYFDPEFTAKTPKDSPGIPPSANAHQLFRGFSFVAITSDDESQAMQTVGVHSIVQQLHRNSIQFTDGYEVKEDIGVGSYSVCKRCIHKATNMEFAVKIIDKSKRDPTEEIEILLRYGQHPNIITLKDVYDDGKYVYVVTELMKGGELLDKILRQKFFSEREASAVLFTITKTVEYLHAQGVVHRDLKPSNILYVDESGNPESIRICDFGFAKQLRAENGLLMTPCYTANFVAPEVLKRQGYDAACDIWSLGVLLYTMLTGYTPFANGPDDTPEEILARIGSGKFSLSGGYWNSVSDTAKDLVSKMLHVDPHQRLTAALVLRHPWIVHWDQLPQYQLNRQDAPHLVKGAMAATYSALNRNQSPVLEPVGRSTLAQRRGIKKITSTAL

[39] = target: SRSF protein kinase 1 (Homo sapiens) (UniProt Q96SB4)
Chain of SRSF protein kinase 1 (Homo sapiens) (Q96SB4 whole entry): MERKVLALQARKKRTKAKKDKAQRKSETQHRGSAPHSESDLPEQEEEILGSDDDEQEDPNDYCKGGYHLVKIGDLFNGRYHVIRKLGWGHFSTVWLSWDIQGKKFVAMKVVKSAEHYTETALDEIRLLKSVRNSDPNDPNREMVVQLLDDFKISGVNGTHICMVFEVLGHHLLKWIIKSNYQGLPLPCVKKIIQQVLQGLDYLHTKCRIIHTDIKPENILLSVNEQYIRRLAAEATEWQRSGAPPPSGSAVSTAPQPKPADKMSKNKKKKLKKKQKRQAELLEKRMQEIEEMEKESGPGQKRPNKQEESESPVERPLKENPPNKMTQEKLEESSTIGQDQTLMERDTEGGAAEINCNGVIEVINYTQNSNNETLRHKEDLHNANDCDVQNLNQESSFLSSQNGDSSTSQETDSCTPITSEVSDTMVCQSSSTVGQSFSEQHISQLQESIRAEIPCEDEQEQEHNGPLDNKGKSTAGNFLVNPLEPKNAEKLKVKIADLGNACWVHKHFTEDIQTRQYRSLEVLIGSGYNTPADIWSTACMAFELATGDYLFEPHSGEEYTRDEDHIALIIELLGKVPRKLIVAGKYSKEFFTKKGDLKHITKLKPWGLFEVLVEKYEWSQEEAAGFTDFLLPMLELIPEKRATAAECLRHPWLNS

[40] = target: SRSF protein kinase 3 (Homo sapiens) (UniProt Q9UPE1)
[41] = target: TGF-beta receptor type-2 (Homo sapiens) (UniProt P37173)
[42] = target: TRAF2 and NCK-interacting protein kinase (Homo sapiens) (UniProt Q9UKE5)
[43] = target: High affinity nerve growth factor receptor (Homo sapiens) (UniProt P04629)
[44] = target: Beta-2 adrenergic receptor (Homo sapiens) (UniProt P07550); settings: Compound concentration 10.0 uM
[45] = target: T1, Sigma intracellular receptor 2; settings: Compound concentration 10.0 uM
[46] = Compound concentration 1000.0 nM
[47] = Compound concentration 100.0 nM

T1 sequence (Q5BJF2 whole entry): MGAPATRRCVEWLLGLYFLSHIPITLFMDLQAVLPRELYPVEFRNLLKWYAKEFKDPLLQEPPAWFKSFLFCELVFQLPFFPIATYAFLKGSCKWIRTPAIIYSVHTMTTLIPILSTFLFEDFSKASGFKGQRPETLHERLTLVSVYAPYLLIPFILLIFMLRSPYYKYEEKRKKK
Chain of Tyrosine-protein kinase ABL1 (Homo sapiens), P00519 [E255K] (P00519 whole entry E255K): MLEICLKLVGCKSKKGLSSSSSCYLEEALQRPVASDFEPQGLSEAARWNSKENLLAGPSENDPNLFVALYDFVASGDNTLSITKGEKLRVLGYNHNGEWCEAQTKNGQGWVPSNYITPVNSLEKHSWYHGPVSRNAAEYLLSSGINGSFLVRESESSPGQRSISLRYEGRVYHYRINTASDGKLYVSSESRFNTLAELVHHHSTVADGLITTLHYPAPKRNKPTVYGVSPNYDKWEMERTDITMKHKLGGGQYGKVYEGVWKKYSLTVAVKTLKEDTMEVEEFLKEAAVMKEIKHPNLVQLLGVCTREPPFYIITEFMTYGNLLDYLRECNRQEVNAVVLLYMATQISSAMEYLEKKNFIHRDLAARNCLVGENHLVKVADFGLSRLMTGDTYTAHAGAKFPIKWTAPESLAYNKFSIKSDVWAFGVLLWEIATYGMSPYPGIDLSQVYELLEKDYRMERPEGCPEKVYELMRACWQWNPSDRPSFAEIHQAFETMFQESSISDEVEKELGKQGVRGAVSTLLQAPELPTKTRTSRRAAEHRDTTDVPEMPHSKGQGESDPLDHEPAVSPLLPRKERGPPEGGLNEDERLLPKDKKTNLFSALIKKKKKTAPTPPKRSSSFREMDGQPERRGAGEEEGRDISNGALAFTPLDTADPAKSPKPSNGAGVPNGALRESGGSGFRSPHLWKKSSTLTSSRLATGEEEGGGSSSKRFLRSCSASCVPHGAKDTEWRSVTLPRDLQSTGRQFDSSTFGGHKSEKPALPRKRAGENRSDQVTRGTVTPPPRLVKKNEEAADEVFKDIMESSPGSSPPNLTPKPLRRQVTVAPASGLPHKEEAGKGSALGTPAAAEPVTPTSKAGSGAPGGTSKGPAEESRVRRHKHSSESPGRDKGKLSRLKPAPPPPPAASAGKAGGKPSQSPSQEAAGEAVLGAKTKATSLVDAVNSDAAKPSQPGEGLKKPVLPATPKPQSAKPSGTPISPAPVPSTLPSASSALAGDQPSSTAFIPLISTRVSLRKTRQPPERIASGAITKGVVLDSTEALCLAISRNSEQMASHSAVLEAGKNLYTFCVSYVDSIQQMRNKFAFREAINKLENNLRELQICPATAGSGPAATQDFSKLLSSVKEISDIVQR
Chain of Activin receptor type-2A (Homo sapiens) (P27037 whole entry): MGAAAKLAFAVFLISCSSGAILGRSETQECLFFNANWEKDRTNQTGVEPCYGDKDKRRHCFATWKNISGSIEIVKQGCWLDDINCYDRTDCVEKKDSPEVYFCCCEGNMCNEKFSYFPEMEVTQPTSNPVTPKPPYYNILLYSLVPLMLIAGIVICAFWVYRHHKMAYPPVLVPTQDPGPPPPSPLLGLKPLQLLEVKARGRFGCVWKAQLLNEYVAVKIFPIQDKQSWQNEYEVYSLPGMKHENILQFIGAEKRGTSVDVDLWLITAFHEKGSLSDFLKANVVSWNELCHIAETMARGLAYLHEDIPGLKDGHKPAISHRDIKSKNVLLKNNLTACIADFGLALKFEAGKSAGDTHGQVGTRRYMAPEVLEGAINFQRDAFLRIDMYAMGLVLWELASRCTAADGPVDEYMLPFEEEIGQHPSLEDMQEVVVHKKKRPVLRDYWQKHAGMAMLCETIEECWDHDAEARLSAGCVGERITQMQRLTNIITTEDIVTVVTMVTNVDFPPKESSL
Chain of Tyrosine-protein kinase ABL1 (Homo sapiens), P00519 [F317I] (P00519 whole entry F317I): as the sequence (P00519 whole entry E255K) above, with K255E, F317I counted along it

Cc1cc(NC(=O)c2cccc(S(F)(F)(F)(F)F)c2)cc(-n2ccn3nc(-c4cccnc4)cc23)c1 [BAY-309]
inactive: residual activity [2, 46] 66.7% | residual activity [3, 46] 100% | residual activity [4, 46] 100% | residual activity [5, 46] 82.8% | residual activity [6, 46] 100% | residual activity [7, 46] 94.9% | residual activity [8, 46] 100% | residual activity [9, 46] 64.2% | residual activity [10, 46] 100% | residual activity [11, 46] 100% | residual activity [12, 46] 72% | residual activity [13, 46] 100% | residual activity [14, 46] 95.4% | residual activity [15, 46] 100% | residual activity [16, 46] 100% | residual activity [17, 46] 98.7% | residual activity [18, 46] 61.7% | residual activity [19, 46] 59.4% | residual activity [20, 46] 81.7% | residual activity [21, 46] 100% | residual activity [22, 46] 85% | residual activity [23, 46] 88.8% | residual activity [24, 46] 100% | residual activity [25, 46] 96% | residual activity [26, 46] 53.6% | residual activity [27, 46] 93.3% | residual activity [28, 46] 82% | residual activity [29, 46] 86.8% | residual activity [30, 46] 100% | residual activity [31, 46] 100% | residual activity [32, 46] 100% | residual activity [33, 46] 72.5% | residual activity [34, 46] 100% | residual activity [35, 46] 99.1% | residual activity [36, 46] 100% | residual activity [37, 46] 74.8% | residual activity [38, 46] 89% | residual activity [39, 46] 100% | residual activity [40, 46] 100% | residual activity [41, 46] 94.5% | residual activity [42, 46] 100% | inhibition [44] -7.8%
789 nM: Ki ([1]; read-out: pKi (converted))
active: residual activity [43, 46] 40.2% | inhibition [45] 68.7%
796 nM: Ki ([1]; read-out: Ki)

Cc1cc(C)c(-n2ccn3nc(-c4cccnc4)cc23)cc1NC(=O)c1cc(C#N)cc(S(F)(F)(F)(F)F)c1 [BAY-826]
inactive: residual activity [2, 47] 74.5% | residual activity [3, 47] 76.4% | residual activity [4, 47] 100% | residual activity [5, 47] 94.5% | residual activity [6, 47] 76.7% | residual activity [7, 47] 71.6% | residual activity [8, 47] 93.6% | residual activity [9, 47] 59% | residual activity [10, 47] 92.4% | residual activity [11, 47] 95.6% | residual activity [12, 47] 86% | residual activity [13, 47] 100% | residual activity [14, 47] 77.6% | residual activity [15, 47] 94.1% | residual activity [16, 47] 88.8% | residual activity [17, 47] 78.7% | residual activity [18, 47] 88.1% | residual activity [19, 47] 100% | residual activity [20, 47] 84.3% | residual activity [21, 47] 65.6% | residual activity [22, 47] 86.2% | residual activity [23, 47] 80.7% | residual activity [24, 47] 84.7% | residual activity [25, 47] 87.3% | residual activity [26, 47] 98.1% | residual activity [27, 47] 74.4% | residual activity [28, 47] 88.9% | residual activity [29, 47] 87.8% | residual activity [30, 47] 70.1% | residual activity [31, 47] 83.5% | residual activity [32, 47] 93.4% | residual activity [33, 47] 77.8% | residual activity [34, 47] 95% | residual activity [35, 47] 89.9% | residual activity [36, 47] 100% | residual activity [37, 47] 74.9% | residual activity [38, 47] 65.1% | residual activity [39, 47] 67.4% | residual activity [40, 47] 100% | residual activity [41, 47] 78.6% | residual activity [42, 47] 97.4% | residual activity [43, 47] 74.8% | inhibition [44] 25.6%
984 nM: Ki ([1]; read-out: Ki)
955 nM: Ki ([1]; read-out: pKi (converted))
active: inhibition [45] 64.4%
